The subject of assay [1] is procollagen type (I) in fibroblasts. The assay is described as follows: Collagen biosynthesis in fibroblasts (procollagen type (I) ELISA). The class given is cell-based. The note with it: 10 ng/ml, 24 hours; non-treated group = 100%. The procedure:
The ginsenoside F2 of the present invention is compared with TGF-β in regards to the effect of promoting biosynthesis of collagen. Firstly, fibroblasts are seeded in 24 wells at a rate of 10^5 per well and cultured until the growth reaches 90%. The fibroblasts are cultured in a non-serum culture medium for 24 hours, treated with each 10 ng/ml of ginsenoside F2 or TGF-β dissolved in the non-serum culture medium, and then cultured in a CO2 incubator for 24 hours. The supernatant liquid is collected to determine an increase or decrease of procollagen using a procollagen type (I) ELISA kit. The collagen synthesis ability is denoted with respect to 100% for the non-treated group.

The subject of assay [2] is DP6 (rat immortalized dermal papilla cell) line. Briefly: Proliferation of hair follicle dermal papilla cells (WST-1). It is filed as cell-based. Conditions: 24 hours, not treated control = 100. The text has this: The keratin protein constituting hair is produced by the keratinocytes in the hair roots, and the keratinocytes are differentiated from the hair papilla cells. To evaluate the composition of the present invention in regards to the effect to enhance the activity of hair papilla cells, the present invention uses DP6 (rat immortalized dermal papilla cell) line (Wendy Filsell, Journal of Cell Science 107, 1761-1772 (1994)). The hair papilla cells used in the present invention are a cell line isolated from the hair roots of male PVG rats by the microdissection method and cultured with DMEM (Dulbecco's modified eagle's medium, Gibco BRL, Gaithersburg, Md., U.S.A.) containing 10% FBS (Fetal Bovine Serum) in an incubator under the conditions of 5% CO2 and 37° C. for 24 hours. DP6 is put in the 96-well plate, cultured in an incubator at 37° C. for 24 hours and treated with the ginsenoside F2 of the present invention independently at a concentration of 5 ppm, 10 ppm, or 20 ppm. 24 hours after the treatment, the cell proliferation ability is measured using a WST-1 kit (Roche).

Another assay deals with T1, elastase type III (Sus scrofa, UniProt P00772).
T1 construct: purchased Sigma-Aldrich E0127
Briefly: Elastase inhibitory effect. The class given is biochemical. Conditions: EGCG 250 μM; 25° C., 15 minutes, absorbance 415 nm. The procedure:
The elastase inhibitory function of the ginsenoside F2 is measured in comparison with that of EGCG. The elastase and the substrate used herein are purchased from Sigma-Aldrich, U.S.A. (Cat. No. E0127).
The elastase inhibitory function is measured according to the following method.
In a 96-well plate, ginsenoside F2 (200 μL) and 50 μL of a 20 μg/mL elastase type III solution are mixed with a […] tris-HCL buffer solution (pH 8.0). The positive control is EGCG 250 μM, and the negative control which is a non-treated group is distilled water. Then, 100 μL of 0.4514 mg/mL N-succinyl-ala-ala-ala-p-nitroanilide prepared with the buffer solution is added to the mixture and allowed to react at 25° C. for 15 minutes. After completion of the reaction, the absorbance at 415 nm was measured. The blank test is performed in the same manner as described above to achieve calibration verification.
The elastase inhibitory function is calculated according to the following mathematical formula 1, and the results are presented in Table 2.
Elastase inhibition rate (%)={1−(C−D)/(A−B)}×100 [Mathematical Formula 1]
A: Absorbance at 415 nm with enzyme and no test substance.
B: Absorbance at 415 nm with no test substance and no enzyme.
C: Absorbance at 415 nm with test substance and enzyme.
D: Absorbance at 415 nm with test substance and no enzyme.

A further assay has as its system Melanin-a cells. Briefly: Melanogenesis promotion in Melanin-a cells. It is filed as cell-based. The note with it: 3 days, DMSO (0.1%) = 100. The procedure:
Melanin-a cells are injected in a 24-well microtiter plate at a rate of 50,000 cells per well with an RPMI medium containing 5% fetal bovine serum, 100 IU penicillin G, and 0.2 μM TPA. Next day, the cells are treated with ginsenoside F2 as a test substance independently at the final concentration of 10 ppm or 50 ppm. The negative control is treated with 0.1% DMSO, and the positive control is treated with 100 μM IBMX. Then, the cells are cultured at 37° C. for 3 days. The wells of the plate are washed with PBS, and 100 μl of 1N NaOH is added to each well to dissolve melanin in the cells. The absorbance of the dissolved melanin is measured at 405 nm with a microplate reader. The effect of the ginsenoside F2 to promote melanogenesis is evaluated in comparison with that of the control groups.

Assay [3] concerns potassium ion channels (KATP channels). The assay is described as follows: KATP channel opener test: recovery of NIH3T3 proliferation blocked by tolbutamide (WST-1). The class given is cell-based, mouse. Conditions: 48 hours. The text has this: Minoxidil, a treatment for hair loss, is known as a potassium ion channel opener (KATP channel opener) potentially acting on mitochondria and a representative drug used for treatment of androgenic alopecia (hair loss). A testing method used to evaluate the action of minoxidil includes treating with tolbutamide (SIGMA-ALDRICH, T0891) blocking the potassium ion channels (KATP channels) in fibroblasts constituting the corium of scalp to inhibit cell proliferation and then opening the potassium ion channels (KATP channels) to resume the cell proliferation. In order to evaluate the function of the composition of the present invention as a KATP channel opener, the present invention uses a mouse embryonic fibroblast cell line, NIH3T3, as fibroblasts. The cell line is obtained by naturally immortalizing a fibroblast cell line isolated from an NIH Swiss mouse embryo with 3T3 protocol. The cell line is cultured with DMEM (Dulbecco's modified eagle's medium, Gibco BRL, Gaithersburg, Md., U.S.A.) containing 10% FBS (Fetal Bovine Serum) in an incubator under the conditions of 5% CO2 and 37° C. for 24 hours.
Background: Tetrazolium assays rely on reduction of a dye to a coloured formazan, in cell work by metabolically active cells.

[4] abbreviates: 2.5 ppm after 2.5 mM tolbutamide.
[5] abbreviates: 10 ppm after 2.5 mM tolbutamide.

These results are taken from patent publication US20150352134A1, “COMPOSITION FOR TOPICAL SKIN APPLICATION CONTAINING GINSENOSIDE F2 DERIVED FROM HYDROPONIC GINSENG” (AMOREPACIFIC CORPORATION, priority 2012, published 2015).

T1 sequence (P00772 27-266): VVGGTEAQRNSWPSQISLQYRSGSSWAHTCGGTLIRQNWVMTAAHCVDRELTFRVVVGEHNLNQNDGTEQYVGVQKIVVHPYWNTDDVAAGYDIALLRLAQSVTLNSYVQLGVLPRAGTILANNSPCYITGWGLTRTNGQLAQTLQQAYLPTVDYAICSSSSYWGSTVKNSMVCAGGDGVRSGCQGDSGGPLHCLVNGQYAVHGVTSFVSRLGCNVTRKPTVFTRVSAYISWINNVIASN

Regarding `CC(C)=CCC[C@](C)(O[C@@H]1O[C@H](CO)[C@@H](O)[C@H](O)[C@H]1O)[C@H]1CC[C@]2(C)[C@@H]1[C@H](O)C[C@@H]1[C@@]3(C)CC[C@H](O[C@@H]4O[C@H](CO)[C@@H](O)[C@H](O)[C@H]4O)C(C)(C)[C@@H]3CC[C@]12C` [Ginsenoside F2, ginsenoside F2], the “Collagen synthesis ability (%)” value in assay [1] came out at 191.6%. The “Cell proliferation ability (%)” value in assay [2] (5 ppm) was found to be 116%; in assay [2] (10 ppm), 122%; in assay [2] (20 ppm) it was 138%; in assay [3] (setting [4]), 115%; in assay [3] (5 ppm after 2.5 mM tolbutamide) it was 120%; in assay [3] (setting [5]), 131%. Besides, the “Inhibition rate (%) (elastase)” value on elastase type III was 78%. The results for the “Yield of Melanin (%)” value in the assay with Melanin-a cells (10 ppm) and in the assay on Melanin-a cells (50 ppm) were 113% and 129%, respectively.

As to `CC(C)=CCC[C@](C)(O[C@@H]1O[C@H](CO[C@@H]2O[C@H](CO)[C@@H](O)[C@H](O)[C@H]2O)[C@@H](O)[C@H](O)[C@H]1O)[C@H]1CC[C@]2(C)[C@@H]1[C@H](O)C[C@@H]1[C@@]3(C)CC[C@H](O[C@@H]4O[C@H](CO)[C@@H](O)[C@H](O)[C@H]4O[C@@H]4O[C@H](CO)[C@@H](O)[C@H](O)[C@H]4O)C(C)(C)[C@@H]3CC[C@]12C` [Ginsenoside Rb1], the “Collagen synthesis ability (%)” value in assay [1] was 188.3%. In addition, the “Cell proliferation ability (%)” value is recorded as 114% in assay [2] (5 ppm); 118% in assay [2] (10 ppm); 127% in assay [2] (20 ppm); 113% in assay [3] (setting [4]); 117% in assay [3] (5 ppm after 2.5 mM tolbutamide); 124% in assay [3] (setting [5]). For the same molecule, the “Inhibition rate (%) (elastase)” value on elastase type III came to 71%. Further, the “Yield of Melanin (%)” value with Melanin-a cells (10 ppm) was 112%; in the assay with Melanin-a cells (50 ppm), 120%.
